Source: patent US10829499B2, “Tetracyclic heterocycle compounds useful as HIV integrase inhibitors” (MERCK SHARP & DOHME CORP., priority 2016, dated 2020)
Read-outs that look alike come from different tables or passages of the source.

System: HIV-1 (NL4-3 strain)
Assay: Assay for Inhibition of HIV Replication (kinetic assay, MT4-gag-GFP reporter cell line; VIKING)
Assay type: cell-based
Protocol: This assay is a kinetic assay that employs a reporter cell line (MT4-gag-GFP) to quantify the number of new cells infected in each round of replication.
MT4-GFP cells (250,000 cells/ml) were bulk-infected with HIV-1 (NL4-3 strain) at low multiplicity of infection (MOI) in RPMI cell culture medium+10% FBS for 24 hours. Cells were then washed once in RPMI cell culture medium+10% FBS and resuspended in RPMI cell culture medium+0% or 10% or 100% normal human serum (NHS). Test compounds were serial-diluted in DMSO on an ECHO® liquid handler. The infected MT4-GFP cells were added to a 384-well poly-D-lysine coated black plate with clear bottom in which the diluted test compounds were placed. The cells were seeded at 8,000 cells per well and the final DMSO concentration was 0.4%. The infected cells (Green GFP cells) were quantified at both 24 and 48 hours post incubation using Acumen eX3. Viral reproductive ratio (R0) was determined using the number of infected cells at 48 hours divided by the number of infected cells at 24 hours. Percent viral growth inhibition was calculated by [1-(R-Rtripledrug),/(RDMSO-Rtripledrug)]*100. Compound potency IP or IC50 was determined by a 4-parameter dose response curve analysis. In vitro potency in the cell-based assay in the absence of normal human serum (NHS) and the presence of 100% NHS.

[1] = Human immunodeficiency virus 1, NL43, MT4-GFP cells infected with HIV-1 NL4-3, 0% normal human serum (NHS), read-out: VIKING IP50 (nM) with 0% NHS
[2] = Human immunodeficiency virus 1, NL43, MT4-GFP cells infected with HIV-1 NL4-3, 100% normal human serum (NHS), read-out: VIKING IP50 (nM) with 100% NHS
[3] = MT4-GFP cells infected with HIV-1 NL4-3, 100% normal human serum (NHS), read-out: VIKING IP50 (nM) with 100% NHS
[4] = MT4-GFP cells infected with HIV-1 NL4-3, 0% normal human serum (NHS), read-out: VIKING IP50 (nM) with 0% NHS

| SMILES | IC50 [1] | IC50 [2] | IC50 [3] | IC50 [4] |
| --- | --- | --- | --- | --- |
| COc1cc(F)cc(F)c1CNC(=O)c1c2n3c(c(O)c1=O)C(=O)N1CCCOC1C3CC2 (racemic) [Compound 59] | 3.08 nM | 8400 nM |  |  |
| O=C(NCc1cccc(Cl)c1F)c1c2n3c(c(O)c1=O)C(=O)N1CCOC1C3CC2 (single isomer, unassigned) [Compound 3] | 0.478 nM |  | 372 nM |  |
| O=C(NCc1cccc(Cl)c1F)c1c2n3c(c(O)c1=O)C(=O)N1CCOC1C3CC2 (single isomer, unassigned) [Compound 4] |  |  | 93.6 nM | 0.439 nM |
| O=C(NCc1cccc(Cl)c1F)c1c2n3c(c(O)c1=O)C(=O)N1CCOC1C3CC2 (single isomer, unassigned) [Compound 5] |  |  | 2250 nM | 0.409 nM |
| O=C(NCc1ccc(F)cc1F)c1c2n3c(c(O)c1=O)C(=O)N1CCOC1C3CC2 (single isomer, unassigned) [Compound 6] |  |  | 7910 nM | 0.825 nM |
| O=C(NCc1ccc(F)cc1F)c1c2n3c(c(O)c1=O)C(=O)N1CCOC1C3CC2 (single isomer, unassigned) [Compound 7] |  |  | 1410 nM | 2.15 nM |
| O=C(NCc1ccc(F)cc1F)c1c2n3c(c(O)c1=O)C(=O)N1CCOC1C3CC2 (single isomer, unassigned) [Compound 8] |  |  | 245 nM | 1 nM |
| O=C(NCc1ccc(F)cc1F)c1c2n3c(c(O)c1=O)C(=O)N1CCOC1C3CC2 (single isomer, unassigned) [Compound 9] | 0.7 nM |  | 1130 nM |  |
| O=C(NCc1ccccc1F)c1c2n3c(c(O)c1=O)C(=O)N1CCOC1C3CC2 (single isomer, unassigned) [Compound 10] | 0.813 nM |  | 226 nM |  |
| O=C(NCc1ccccc1F)c1c2n3c(c(O)c1=O)C(=O)N1CCOC1C3CC2 (single isomer, unassigned) [Compound 11] |  |  | 589 nM | 1.09 nM |
| O=C(NCc1ccccc1F)c1c2n3c(c(O)c1=O)C(=O)N1CCOC1C3CC2 (single isomer, unassigned) [Compound 12] |  |  | 892 nM | 1.39 nM |
| O=C(NCc1ccccc1F)c1c2n3c(c(O)c1=O)C(=O)N1CCOC1C3CC2 (single isomer, unassigned) [Compound 13] |  |  | 5520 nM | 0.827 nM |
| O=C(NCc1c(F)cccc1F)c1c2n3c(c(O)c1=O)C(=O)N1CCOC1C3CC2 (single isomer, unassigned) [Compound 14] |  |  | 194 nM | 0.827 nM |
| O=C(NCc1c(F)cccc1F)c1c2n3c(c(O)c1=O)C(=O)N1CCOC1C3CC2 (single isomer, unassigned) [Compound 15] |  |  | 373 nM | 0.609 nM |
| O=C(NCc1c(F)cccc1F)c1c2n3c(c(O)c1=O)C(=O)N1CCOC1C3CC2 (single isomer, unassigned) [Compound 16] |  | 8000 nM |  | 6.28 nM |
| O=C(NCc1c(F)cccc1F)c1c2n3c(c(O)c1=O)C(=O)N1CCOC1C3CC2 (single isomer, unassigned) [Compound 17] |  |  | 7940 nM | 7.09 nM |
| O=C(NCc1c(F)cc(F)cc1F)c1c2n3c(c(O)c1=O)C(=O)N1CCOC1C3CC2 (single isomer, unassigned) [Compound 18] | 0.483 nM | 8000 nM |  |  |
| O=C(NCc1c(F)cc(F)cc1F)c1c2n3c(c(O)c1=O)C(=O)N1CCOC1C3CC2 (single isomer, unassigned) [Compound 19] |  |  | 1230 nM | 0.539 nM |
| O=C(NCc1c(F)cc(F)cc1F)c1c2n3c(c(O)c1=O)C(=O)N1CCOC1C3CC2 (single isomer, unassigned) [Compound 20] |  |  | 602 nM | 0.727 nM |
| O=C(NCc1c(F)cc(F)cc1F)c1c2n3c(c(O)c1=O)C(=O)N1CCOC1C3CC2 (single isomer, unassigned) [Compound 21] |  |  | 158 nM | 0.605 nM |
| O=C(NCc1ccc(F)c(Cl)c1)c1c2n3c(c(O)c1=O)C(=O)N1CCOC1C3CC2 (single isomer, unassigned) [Compound 22] | 0.895 nM |  | 503 nM |  |
| O=C(NCc1ccc(F)c(Cl)c1)c1c2n3c(c(O)c1=O)C(=O)N1CCOC1C3CC2 (single isomer, unassigned) [Compound 23] |  |  | 2190 nM | 1.06 nM |
| O=C(NCc1ccc(F)c(Cl)c1)c1c2n3c(c(O)c1=O)C(=O)N1CCOC1C3CC2 (single isomer, unassigned) [Compound 24] |  | 8000 nM |  | 0.622 nM |

| SMILES | IC50 [1] | IC50 [2] | IC50 [3] | IC50 [4] |
| --- | --- | --- | --- | --- |
| O=C(NCc1ccc(F)c(Cl)c1)c1c2n3c(c(O)c1=O)C(=O)N1CCOC1C3CC2 (single isomer, unassigned) [Compound 25] |  |  | 2540 nM | 0.809 nM |
| C[C@H]1COC2C3CCc4c(C(=O)NCc5ccc(F)cc5F)c(=O)c(O)c(n43)C(=O)N21 (single isomer, unassigned) [Compound 27] | 0.313 nM |  | 956 nM |  |
| C[C@H]1COC2C3CCc4c(C(=O)NCc5ccc(F)cc5F)c(=O)c(O)c(n43)C(=O)N21 (single isomer, unassigned) [Compound 28] |  |  | 257 nM | 0.401 nM |
| C[C@H]1COC2C3CCc4c(C(=O)NCc5cccc(Cl)c5F)c(=O)c(O)c(n43)C(=O)N21 (single isomer, unassigned) [Compound 29] | 0.412 nM |  | 3410 nM |  |
| C[C@H]1COC2C3CCc4c(C(=O)NCc5cccc(Cl)c5F)c(=O)c(O)c(n43)C(=O)N21 (single isomer, unassigned) [Compound 30] |  |  | 838 nM | 0.536 nM |
| C[C@H]1COC2C3CCc4c(C(=O)NCc5cccc(Cl)c5F)c(=O)c(O)c(n43)C(=O)N21 (single isomer, unassigned) [Compound 31] |  |  | 197 nM | 0.418 nM |
| C[C@@H]1COC2C3CCc4c(C(=O)NCc5ccc(F)cc5F)c(=O)c(O)c(n43)C(=O)N21 (single isomer, unassigned) [Compound 33] | 0.543 nM | 1940 nM |  |  |
| C[C@@H]1COC2C3CCc4c(C(=O)NCc5ccc(F)cc5F)c(=O)c(O)c(n43)C(=O)N21 (single isomer, unassigned) [Compound 34] |  |  | 1560 nM | 0.635 nM |
| C[C@@H]1COC2C3CCc4c(C(=O)NCc5cccc(Cl)c5F)c(=O)c(O)c(n43)C(=O)N21 (single isomer, unassigned) [Compound 36] | 0.826 nM | 1060 nM |  |  |
| C[C@@H]1COC2C3CCc4c(C(=O)NCc5cccc(Cl)c5F)c(=O)c(O)c(n43)C(=O)N21 (single isomer, unassigned) [Compound 37] |  |  | 1690 nM | 0.546 nM |
| C[C@@H]1CN2C(=O)c3c(O)c(=O)c(C(=O)NCc4cccc(Cl)c4F)c4n3C(CC4)C2O1 (single isomer, unassigned) [Compound 39] |  | 8000 nM |  | 0.575 nM |
| C[C@@H]1CN2C(=O)c3c(O)c(=O)c(C(=O)NCc4cccc(Cl)c4F)c4n3C(CC4)C2O1 (single isomer, unassigned) [Compound 40] |  |  | 8000 nM | 1.84 nM |
| C[C@@H]1CN2C(=O)c3c(O)c(=O)c(C(=O)NCc4cccc(Cl)c4F)c4n3C(CC4)C2O1 (single isomer, unassigned) [Compound 41] |  |  | 2380 nM | 0.854 nM |
| C[C@H]1CN2C(=O)c3c(O)c(=O)c(C(=O)NCc4cccc(Cl)c4F)c4n3C(CC4)C2O1 (single isomer, unassigned) [Compound 43] |  |  | 18.2 nM | 1.06 nM |
| C[C@H]1CN2C(=O)c3c(O)c(=O)c(C(=O)NCc4cccc(Cl)c4F)c4n3C(CC4)C2O1 (single isomer, unassigned) [Compound 44] |  |  | 378 nM | 0.879 nM |
| C[C@H]1CN2C(=O)c3c(O)c(=O)c(C(=O)NCc4cccc(Cl)c4F)c4n3C(CC4)C2O1 (single isomer, unassigned) [Compound 45] |  |  | 486 nM | 5.81 nM |
| O=C(NCc1cccc(Cl)c1F)c1c2n3c(c(O)c1=O)C(=O)N1CCCO[C@@H]1[C@@H]3CC2 (single isomer, unassigned) [Compound 48] | 1.31 nM | 27.3 nM |  |  |
| O=C(NCc1cccc(Cl)c1F)c1c2n3c(c(O)c1=O)C(=O)N1CCCOC1C3CC2 (single isomer, unassigned) [Compound 49] | 0.96 nM | 1190 nM |  |  |
| O=C(NCc1cccc(Cl)c1F)c1c2n3c(c(O)c1=O)C(=O)N1CCCOC1C3CC2 (single isomer, unassigned) [Compound 50] |  |  | 1070 nM | 0.901 nM |
| O=C(NCc1ccc(F)cc1)c1c2n3c(c(O)c1=O)C(=O)N1CCCOC1C3CC2 (single isomer, unassigned) [Compound 51] | 1.25 nM |  | 32.6 nM |  |
| O=C(NCc1ccc(F)cc1)c1c2n3c(c(O)c1=O)C(=O)N1CCCOC1C3CC2 (single isomer, unassigned) [Compound 52] |  |  | 3380 nM | 1.29 nM |
| O=C(NCc1ccc(F)cc1)c1c2n3c(c(O)c1=O)C(=O)N1CCCOC1C3CC2 (single isomer, unassigned) [Compound 53] |  |  | 393 nM | 0.963 nM |
